The test system of one data set is mammals. Particulars: cited from earlier work; for neuronal toxicity: used in mammals.
The conditions of data set [1]: cited from earlier work.
A further data set relates to testes of a rat. Briefly: Near IR fluorescence imaging of testicular perfusion after unilateral interruption of blood flow to the right testis. It counts as in vivo.
The mark [2] stands for this setting: bulldog clamp, 0.5 ml of 2.5 mg/ml ICG IV, imaged through the scrotum.

Entries after “also recorded” stand apart in the source; their conditions may differ.

Procedure for testes of a rat: Intraoperative video angiography is performed with a laser-fluorescence imaging device (Novadaq Technologies, Inc., Toronto, Canada) consisting of a near infrared (NIR) laser light source and a NIR-sensitive digital camcorder. For measurements, the unit is positioned 30 to 40 cm from the area of interest. ICG, dissolved in water, is then injected as a bolus. When ICG is used as the imaging dye, NIR light emitted by the laser light source induces ICG fluorescence. The fluorescence is typically imaged by a video camera, with optical filtering to block ambient and laser light so that only ICG fluorescence is captured. […] Two rats were subjected to unilateral interruption of blood flow to the right testis. In rat A, a bulldog clamp was used, in rat B, a mosquito clamp (a smaller clamp designed to cut off blood flow in small blood vessels) was used. ICG was administered by IV to each rat to determine the ability to visualize the degree to which the testicle underwent hypoperfusion or lack of perfusion. Prior to administration of ICG, rat A was first subjected to near IR and imaged. […] 0.5 ml of ICG at a concentration of 2.5 mg/ml was then administered by IV. The right spermatic cord was clamped with a bulldog clamp to create vascular obstruction and the testicles were imaged.

In the case of `N=C(N)c1ccc(/C=C/c2ccc(C(=N)N)cc2O)cc1` [Fluorogold], in the data set on mammals, the neuronal toxicity result is on record as “low evidence of neuronal toxicity”.

As to `CC1(C)C(/C=C/C=C/C=C/C=C2\N(CCCCS(=O)(=O)O)c3ccc4ccccc4c3C2(C)C)=[N+](CCCCS(=O)(=O)[O-])c2ccc3ccccc3c21` [ICG, indocyanine green], the distribution entry in data set [1] (after intravenous injection, with normal vascular permeability) was “remains intravascular”. Also, the “time to binding, mainly to globulins (1-lipoproteins)” value in data set [1] (after intravenous injection) was 1 to 2 s. Further, in data set [1] (in vivo), the enterohepatic recirculation entry was “does not undergo enterohepatic recirculation”, the excretion result is given as “excreted exclusively by the liver”, the “metabolism in the body” value is recorded as “not metabolized” and the “reabsorption from the intestine” value is “not reabsorbed from the intestine”. The toxicity entry in the data set on mammals (in vivo) was “low toxicity”. Besides, in the data set on mammals, the neuronal toxicity result is “low evidence of neuronal toxicity”. Moreover, in the data set on testes of a rat (bulldog clamp removed from the spermatic cord), the “fluorescence of the right testicle after removal of the clamp (reperfusion)” value is recorded as “restoration of fluorescence; also recorded: Fluoresence of the right testicle was observed”. Also, the “fluorescence of the right testicle during clamp obstruction of the right spermatic cord” value with testes of a rat (bulldog clamp, 0.5 ml of 2.5 mg/ml ICG IV, exposed testes) is given as “absence of fluorescence”. Besides, in the data set with testes of a rat (setting [2]), the “fluorescence of the left hemiscrotum (unclamped side)” value is “intense fluorescence” and the “fluorescence of the right hemiscrotum (clamped side)” value is “low fluorescence”. Moreover, in the data set with testes of a rat (mosquito (vascular) clamp, ICG IV), the “differential perfusion seen after occlusion” value is “obvious differential perfusion”.

Consider Fast Blue, for which the neuronal toxicity entry in the data set on mammals is given as “low evidence of neuronal toxicity”.

Values taken from patent US20080125663A1, “Pre-And Intra-Operative Imaging of Testicular Torsion” (University of Rochester Medical Center, priority 2006, published 2008).
